Structures can show the parent of a compound that is named as a salt.
Assay: RP, Thermo Scientific Hypersil GOLD, 1.9 µm, 40 °C, 0.4 mL/min; A: water + 0.1% formic acid, pH 3; B: acetonitrile + 0.1% formic acid, pH 3; gradient (min/%B) 0/0 1/0 11/100 13/100 14/0 16/0
Settings: stereoisomer not certain

Compound	LC retention time [min]
CC(CCCC(C)(C)O)C1CCC2C3CC=C4CC(O)CCC4(C)C3CCC12C (stereo unspecified) [25-HYDROXYCHOLESTEROL]	11.9
CC(=O)NCCCC(=O)O [4-ACETAMIDOBUTANOATE]	1.69
O=C(O)c1cc(=O)c2cccc(O)c2[nH]1 [XANTHURENATE]	4.45
O=C(O)Cc1ccc(O)cc1 [4-Hydroxyphenylacetic acid]	4.88
O=C(O)c1cccc(O)c1O [2-3-DIHYDROXYBENZOATE]	5.01
Cc1ncc(CO)c(CO)c1O [PYRIDOXINE]	0.82
Cn1c(=O)[nH]c2ncn(C)c2c1=O [PARAXANTHINE]	4.41
NC(N)=NC(CC(=O)O)C(=O)O (stereo unspecified) [GUANIDINOSUCCINATE]	0.67
Nc1nc2c(c(=O)[nH]1)N=C(CNc1ccc(C(=O)NC(CCC(=O)O)C(=O)O)cc1)CN2 (stereo unspecified) [DIHYDROFOLATE]	4.54
Nc1c(O)cccc1C(=O)CC(N)C(=O)O (stereo unspecified) [HYDROXYKYNURENINE]	0.88
O=C(CO)C(O)C(O)C(O)CO (stereo unspecified) [SORBOSE]	0.64
O=C(O)CC(Cc1ccccc1)C(=O)O (racemic) [dl-benzylsuccinic acid]	6.38
C=C(CC(=O)O)C(=O)O [ITACONATE]	3.2
OCC1OC(OC2C(CO)OC(OC3C(CO)OC(O)C(O)C3O)C(O)C2O)C(O)C(O)C1O (stereo unspecified) [Maltotriose]	0.61
CC(C=CC1=C(C)CCCC1(C)C)=CC=CC(C)=CC(=O)[O-] [RETINOATE]	11.5
O=C(O)CNC(=O)c1ccccc1 [HIPPURATE]	4.92
CC(CCC(=O)O)C1CCC2C3CCC4CC(=O)CCC4(C)C3CCC12C (stereo unspecified) [5b-cholanic acid-3-ONE]	10.7
CC(=O)OCC(=O)O [Acetoxyacetic acid]	1.93
CC(=O)C1CCC2C3CC=C4CC(OS(=O)(=O)O)CCC4(C)C3CCC12C (stereo unspecified) [pregnenolone sulfate]	8.05
CC12CCC3c4ccc(O)cc4CCC3C1CCC2O (stereo not drawn) [ESTRADIOL-17ALPHA]	8.07
Nc1c(O)cccc1C(=O)O [3-HYDROXYANTHRANILATE]	3.43
Cc1ncc(CO)c(CN)c1O [PYRIDOXAMINE]	0.59
O=C1C=CC(=O)N1 [MALEIMIDE]	0.84
O=C([O-])C=CC(=O)[O-] [MALEATE]	0.88

Compound	LC retention time [min]
C[n+]1cccc(C(=O)[O-])c1 [TRIGONELLINE]	0.69
O=C1CCCCO1 [5-VALEROLACTONE]	6.54
OCC1OC(O)C(O)C1O (stereo unspecified) [RIBOSE]	0.66
COC(=O)CCC(=O)O [mono-Methyl hydrogen succinate]	3.97
C=Cc1c(C)c2cc3[nH]c(cc4nc(cc5nc(cc1[nH]2)C(C)=C5CCC(=O)O)C(CCC(=O)O)=C4C)c(C)c3C=C [PROTOPORPHYRIN]	11.7
Nc1nc2c(ncn2C2OC(COP(=O)(O)O)C(O)C2O)c(=O)[nH]1 (stereo unspecified) [GUANOSINE MONOPHOSPHATE]	0.81
Oc1ccc(C=Cc2cc(O)cc(O)c2)cc1 [resveratrol]	6.28
CCCCCCCCCCCCCC(=O)OCC(O)CO (stereo unspecified) [GLYCEROL-MYRISTATE]	11.2
O=C([O-])C(O)C(O)C(=O)[O-] (stereo not drawn) [MESO-TARTRATE]	0.71
OCCc1c[nH]c2ccccc12 [INDOLE-3-ETHANOL]	6.28
COc1cc(C(O)CN)ccc1O (stereo unspecified) [NORMETANEPHRINE]	0.82
CCCCC(O)C(=O)O (stereo unspecified) [2-hydroxycaproic acid]	5.43
O=C(O)C(=O)Cc1c[nH]c2ccccc12 [INDOLE-3-PYRUVATE]	6
C[N+](C)(C)CCCCC(N)C(=O)[O-] (stereo unspecified) [N-N-N-TRIMETHYLLYSINE]	0.59
O=C(O)C(=O)CS [MERCAPTOPYRUVATE]	0.89
O=Cc1ccc(O)cc1 [4-HYDROXYBENZALDEHYDE]	5.13
CN1CC(=O)NC1=N [CREATININE]	0.62
NC(=O)c1ncccc1O [3-Hydroxypicolinamide]	4.64
O=Cc1cccc(O)c1 [3-HYDROXYBENZALDEHYDE]	5.4
NCCOP(=O)(O)O [O-PHOSPHOETHANOLAMINE]	0.61
Cn1cnc2c(ncn2C2OC(CO)C(O)C2O)c1=N (stereo unspecified) [1-METHYLADENOSINE]	3.82
CCC(=O)C(=O)[O-] [2-OXOBUTANOATE]	9.98
O=C(O)C=Cc1cnc[nH]1 [UROCANATE]	0.82
NC(CCSSCCC(N)C(=O)O)C(=O)O (stereo unspecified) [HOMOCYSTINE]	0.72

Compound	LC retention time [min]
NC1CCSC1=O (stereo unspecified) [HOMOCYSTEINE THIOLACTONE]	0.72
CC(=O)NC(CC(C)C)C(=O)O (stereo unspecified) [N-ACETYLLEUCINE]	5.47
Cn1c(=O)c2[nH]cnc2n(C)c1=O [THEOPHYLLINE]	4.42
CC(=O)OCC(=O)C1(O)CCC2C3CCC4=CC(=O)CCC4(C)C3C(O)CC21C (stereo unspecified) [CORTISOL 21-ACETATE]	7.67
CC(C)(O)C(=O)O [ALPHA-HYDROXYISOBUTYRATE]	1.62
CC1OC(OCC2OC(Oc3c(-c4ccc(O)c(O)c4)oc4cc(O)cc(O)c4c3=O)C(O)C(O)C2O)C(O)C(O)C1O (stereo unspecified) [rutin hydrate]	5.42
NC(CCS)C(=O)O (stereo unspecified) [HOMOCYSTEINE]	0.72
Nc1nc2ncc(CNc3ccc(C(=O)NC(CCC(=O)O)C(=O)O)cc3)nc2c(=O)[nH]1 (stereo unspecified) [FOLATE]	4.68
C[n+]1cccc(C(N)=O)c1 [1-METHYLNICOTINAMIDE]	0.63
O=C(O)CC(=O)O [MALONATE]	0.83
CCCCCCCCC=CCCCCCCCCCCCCCC(=O)[O-] [NERVONATE]	14
NC(Cc1ccc(O)c(O)c1)C(=O)O [3-4-DIHYDROXY-L-PHENYLALANINE]	0.82
CC(CN)C(=O)O (stereo unspecified) [AMINOISOBUTANOATE]	0.67
CC(=O)NCCCCN [N-ACETYLPUTRESCINE]	0.71
C[N+](C)(C)CCCC(=O)O [DEOXYCARNITINE]	0.67
CC(=O)N[C@@H]1[C@@H](O)[C@H](O)[C@@H](CO)O[C@H]1N [2-ACETAMIDO-2-DEOXY-BETA-D-GLUCOSYLAMINE]	0.6
CSc1ncnc2nc[nH]c12 [THIOPURINE S-METHYLETHER]	4.8
O=C1OC(CO)C(O)C(O)C1O (stereo unspecified) [GLUCONOLACTONE]	0.64
O=C(O)c1ccccc1O [SALICYLATE]	6.26
CC12CCC3C(CC=C4CC(O)CCC43C)C1CCC2=O (stereo unspecified) [3-b-Hydroxyandrost-5-en-17-one (Dehydroepiandrosterone)]	4.86
Cn1cnc(=N)c2[nH]cnc21 [3-METHYLADENINE]	0.8
Oc1cc(O)c2c(c1)OC(c1ccc(O)c(O)c1)C(O)C2 (single isomer, unassigned; (+)) [(+)-Catechin hydrate]	4.73
CSCCC(O)C(=O)O (stereo unspecified) [2-HYDROXY-4-(METHYLTHIO)BUTANOATE]	4.21
CC12CCC(=O)C=C1CCC1C2C(O)CC2(C)C1CCC2(O)C(=O)CO (stereo unspecified) [CORTISOL]	6.73

Compound	LC retention time [min]
Nc1nc2nccnc2c(=O)[nH]1 [PTERIN]	0.82
Cc1cnc(=O)[nH]c1N [5-METHYLCYTOSINE]	0.7
Cc1ncccc1C(N)=O [2-Methylnicotinamide]	0.69
C[N+](C)(C)CCO [CHOLINE]	0.62
CN1C2CC(OC(=O)C(CO)c3ccccc3)CC1C1OC12 (single isomer, unassigned; (-)) [(-)-Scopolamine hydrochloride]	4.91
Nc1ncnc2c1ncn2C1OC(CSCCC([NH3+])C(=O)[O-])C(O)C1O (stereo unspecified) [S-ADENOSYLHOMOCYSTEINE]	0.82
NCCCCN=C(N)N [AGMATINE SULFATE]	0.54
Cc1cc(=O)oc(C)c1C(=O)O [Isodehydracetic acid]	4.13
COC1OC(CO)C(O)C(O)C1O (stereo unspecified) [METHYL GALACTOSIDE]	0.74
N[C@H](C(=O)O)c1ccc(O)cc1 [4-HYDROXY-L-PHENYLGLYCINE]	0.67
COC(=O)c1ccc(O)c(OC)c1 [METHYL VANILLATE]	6.4
c1ccc(CNc2ccccc2)cc1 [N-benzylaniline]	8.5
CC1NCCc2cc(O)c(O)cc21 (stereo unspecified) [SALSOLINOL]	0.82
Nc1ncnc2c1ncn2C1OC(CO)C(O)C1O (stereo unspecified) [ADENOSINE]	0.86
O=C(O)Cc1ccc(O)c(O)c1 [3-4-DIHYDROXYPHENYLACETATE]	4.32
O=C(O)C(O)Cc1ccc(O)cc1 (stereo unspecified) [HYDROXYPHENYLLACTATE]	4.38
O=C(O)/C=C/c1ccccc1 [TRANS-CINNAMATE]	6.96
O=CCc1ccccc1 [PHENYLACETALDEHYDE]	10.3
COc1ccc2[nH]cc(CCNC(C)=O)c2c1 [MELATONIN]	6.09
Nc1ncnc2c1ncn2C1OC(CO)C(OP(=O)(O)O)C1O (stereo unspecified) [Adenosine 3'-monophosphate free acid]	0.82
C[N+](C)(C)CCOP(=O)(O)O [PHOSPHORYLCHOLINE]	0.64
CC(=O)C1(O)CCC2C3CC=C4CC(O)CCC4(C)C3CCC21C (stereo unspecified) [17a-Hydroxypregnenolone]	0.67
Nc1ccc(C(=O)O)cc1 [4-AMINOBENZOATE]	3.29
O=C(O)CC(=O)CC(=O)O [1-3-Acetonedicarboxylic acid]	0.8

Reference: the RepoRT retention time repository
